From patent US10828269B2, “Reducing muscle atrophy by administering astaxanthin” (FUJI CHEMICAL INDUSTRIES CO., LTD., priority 2004, dated 2020)

Experiments:
[1] = tested on: Type II diabetic female db/db mice; test: Onset of diabetic complication in db/db mice (urine albumin, urine 8-OHdG, blood glucose, kidney histopathology); assay type: in vivo, mouse
Description: (§1) Type II diabetic female db/db mice and non-diabetic db/m were purchased from Clea Japan, Inc. Mice were bred under the conditions with a 12 hours light-dark cycle at a temperature of 21° C. to 25° C. For acclimation, mice were fed CE-2 (Clea Japan, Inc.) with free access to water for one week. The mice were divided into three groups each consisting of 8 mice (non-diabetic db/m, diabetic db/db, and astaxanthin-administered db/db) and each group was bred with feed ad libitum. Mice in astaxanthin-administered group were fed a diet in which 0.02% astaxanthin in terms of free astaxanthin was compounded with CE-2. Each group was bred for 12 weeks, and body weight, blood glucose levels, 8-OHdG levels in urine, albumin levels in urine, and kidney histopathology, were measured. Astaxanthin used here was AstaReal (registered trademark, Fuji Chemical Industry Co., Ltd.) 50F, which is oil composed of astaxanthin fatty acid ester and triglycerides and contains 5% astaxanthin in terms of free astaxanthin.
FIG. 1 is a photomicrograph of glomerulus.

[2] = tested on: C1q and tumor necrosis factor related protein 5; test: GeneChip gene expression in renal glomerulus; assay type: in vivo, mouse; details: probe 1424762_at, 0.02% in diet, 12 weeks
Description: as §1
(§2) After the period of test breeding, kidney was removed and frozen at −80° C. Using an LM200 system (Olympus Corporation), the renal glomerulus was cut from kidney of mice while keeping low temperature. tRNA of renal glomerulus was extracted using tRNA extraction regent “Isogen” (produced by Nippon Gene Co., Ltd.), and then preparation of cRNA and hybridization were performed according to the Affymetrix GeneChip Eukaryotic Small Sample Target Labeling Assay Ver. II.
(§3) (1) Synthesis of first strand cDNA: 1 μL of total RNA solution and 1 of 5 μM T7-Oligo(dT) primer were mixed, heated at 70° C. for 6 minutes, and then cooled at 4° C. for 2 minutes. 3 μL of RT_Premix_1 (1.5 μL DEPC-treated water, 4 μL 5× First strand Buffer, 2 μL DTT (0.1 M), 1.5 μL dNTP Mix (10 mM), 1 μL RNase inhibitor (40 U/μL), and 2 μL Super-Script II (200 U/μL)) was added and reverse transcribed at 42° C. for 1 hour. The sample was heated at 70° C. for 10 minutes to inactivate Super Script II, and then cooled to 4° C. (2) Synthesis of second strand cDNA: 32.5 μl of SS_Premix_1 (91 μL DEPC-treated water, 30 μL 5× Second Strand Buffer, 3 μL dNTP (10 mM), 1 μL E. coli DNA ligase (10 U/μL); 4 μL E. coli DNA polymerase (10 U/μL), and 1 μL RNase H (2 U/μL)) was added to the first strand cDNA solution and allowed to react for 2 hours at 16° C. (3) To the resulting cDNA, was added 1 μL T4 DNA polymerase (5 U/μl) and allowed to react for 10 minutes at 16° C., and purified by ethanol precipitation. (4) In vitro transcription: To the dried double-stranded cDNA pellet, was added 10 μL of reagents (4 μL DEPC-treated water, 4 μL premixed NTPs, 1 μL 10× reaction buffer, and 1 μL 10× enzyme mix), and allowed to react at 37° C. in a water bath for 6 hours. (5) First cycle cRNA was purified using the RNeasy Mini Kit in accordance with the protocol in the handbook (QIAGEN). (6) Subsequently, for the amplification and labeling, the cRNA sample was mixed with random primers (0.2 μg/μL), treated at 70° C. for 10 minutes, cooled on ice for 2 minutes, 5 μL of RT_Premix_2 (5× First Strand Buffer, DTT (0.1 M), dNTP mix (10 mM), RNase inhibitor (40 U/μL), and SuperScript II (200 U/μL) was added, and allowed to react at 42° C. for 1 hour. (7) Next, Second Sstrand cDNA synthesis was carried out by adding 5 μM T7-Oligo(dT) promoter treating at 70° C. for 6 minutes, cooling at 4° C., and adding 62 μL of SS_Premix_2 (43 μL it DEPC-treated water, 15 μL 5× Second Strand Buffer, 1.5 μL dNTP mix (10 mM), and 2 μL E. coli DNA polymerase (10 U/μL)). (8) To the resulting cDNA, was treated added 1 μL of T4 DNA polymerase (5 U/μL), allowed to react at 16° C. for 10 minutes, and purified by ethanol precipitation. […]

[3] = tested on: C1q related factor; test: GeneChip gene expression in renal glomerulus; assay type: in vivo, mouse; details: probe 1422777_at, 0.02% in diet, 12 weeks
Description: as §1, §2, §3

[4] = tested on: MAD homolog 4 (Dorosophia); test: GeneChip gene expression in renal glomerulus; assay type: in vivo, mouse; details: probe 1422486_a_at, 0.02% in diet, 12 weeks
Description: as §1, §2, §3

[5] = tested on: catalase; test: GeneChip gene expression in renal glomerulus; assay type: in vivo, mouse; details: probe 1416430_at, 0.02% in diet, 12 weeks
Description: as §1, §2, §3

[6] = tested on: collagen, type XXV, alpha 1; test: GeneChip gene expression in renal glomerulus; assay type: in vivo, mouse; details: probe 1438655_a_at, 0.02% in diet, 12 weeks
Description: as §1, §2, §3

[7] = tested on: procollagen, type IV, alpha 5; test: GeneChip gene expression in renal glomerulus; assay type: in vivo, mouse; details: probe 1425476_at, 0.02% in diet, 12 weeks
Description: as §1, §2, §3

[8] = tested on: ring finger protein 128; test: GeneChip gene expression in renal glomerulus; assay type: in vivo, mouse; details: probe 1449036_at, 0.02% in diet, 12 weeks
Description: as §1, §2, §3

[9] = tested on: septin 7; test: GeneChip gene expression in renal glomerulus; assay type: in vivo, mouse; details: probe 1454610_at, 0.02% in diet, 12 weeks
Description: as §1, §2, §3

[10] = tested on: superoxide dismutase 1, soluble; test: GeneChip gene expression in renal glomerulus; assay type: in vivo, mouse; details: 0.02% in diet, 12 weeks
Description: as §1, §2, §3

[11] = tested on: transforming growth factor beta 1 induced transcript 4; test: GeneChip gene expression in renal glomerulus; assay type: in vivo, mouse; details: 0.02% in diet, 12 weeks
Description: as §1, §2, §3

[12] = tested on: diabetic db/db mice; details: Naito Y. et al, Redox Rep 2002; cited from earlier work

## CC1=C(/C=C/C(C)=C/C=C/C(C)=C/C=C/C=C(C)/C=C/C=C(C)/C=C/C2=C(C)C(=O)C(O)CC2(C)C)C(C)(C)CC(O)C1=O (stereo not drawn) [astaxanthin, 3,3′-dihydroxy-β,β-carotene-4,4′-dione]
[1]; at the end (12 weeks), db/db mice, diet with 0.02% astaxanthin (AstaReal 50F)
  Albumin level in urine: 77.8 ± 44.6 mg/dL
[1]; at the start, astaxanthin-administered db/db mice
  Albumin level in urine: 46.2 ± 1.5 mg/dL
[1]; diabetic db/db mice, diet with 0.02% astaxanthin, 12 weeks
  blood glucose levels: reduces blood glucose levels
[1]; kidney of db/db(Ax) vs db/db mice
  enlargement of glomerular mesangium (microscope): apparently moderated
[2]
  gene expression intensity ratio db/db(Ax):db/db: 2.00
  gene expression intensity ratio db/db(Ax):db/m: 1.23
[3]
  gene expression intensity ratio db/db(Ax):db/db: 1.32
  gene expression intensity ratio db/db(Ax):db/m: 0.71
[4]
  gene expression relative ratio db/db(Ax):db/db: 1.00
  gene expression relative ratio db/db(Ax):db/m: 27.86
[5]
  gene expression relative ratio db/db(Ax):db/db: 0.33
  gene expression relative ratio db/db(Ax):db/m: 8.57
[6]
  gene expression intensity ratio db/db(Ax):db/db: 0.19
  gene expression intensity ratio db/db(Ax):db/m: 0.87
[7]
  gene expression intensity ratio db/db(Ax):db/db: 0.50
  gene expression intensity ratio db/db(Ax):db/m: 2.00
[8]
  gene expression relative ratio db/db(Ax):db/db: 0.1
  gene expression relative ratio db/db(Ax):db/m: 1.62
[9]
  gene expression relative ratio db/db(Ax):db/db: 0.76
  gene expression relative ratio db/db(Ax):db/m: 36.76
[10]
  gene expression relative ratio db/db(Ax):db/db: 0.23
[10]; probe 1448184_at (Table 5)
  gene expression relative ratio db/db(Ax):db/m: 4.00
[11]; probe 1425742_a_at
  gene expression relative ratio db/db(Ax):db/db: 0.33
  gene expression relative ratio db/db(Ax):db/m: 1.41
[11]; probe 1454971_x_at
  gene expression relative ratio db/db(Ax):db/db: 0.57
  gene expression relative ratio db/db(Ax):db/m: 3.25
[12]
  blood glucose level: reduces blood glucose level
  diabetic nephropathy: has an effect on the improvement of diabetic nephropathy
